Non-standard residues stand in square brackets, D forms with d. *: point of attachment. dPhe(4-Cl) = N[C@H](Cc1ccc(Cl)cc1)C(=O)O; d2Nal = N[C@H](Cc1ccc2ccccc2c1)C(=O)O; d3Pal = N[C@H](Cc1cccnc1)C(=O)O; Carbamoyl = NC(=O)*; iPr = CC(C)*
Legend:
[1] = test system: plasma testosterone; assay: Suppression of plasma testosterone in rats after i.m. injection; type: in vivo; conditions: 300 μg/kg i.m.
Excerpt: The effect of an LHRH antagonist peptide of Example 1 of the present invention was compared to the effect of "Antide", cf. A. Ljungqvist et al., Biochem. Biophys. Res. Comm., 148, 849-858 (1987)., an LHRH antagonist of the prior art. Both LHRH antagonists were intermuscularly injected into 6 rats at a dosage of 300 mcg/kg.

[2] = test system: rats; assay: Test for anaphylactoid properties in rats; type: in vivo; conditions: six rats, injected with 5 mg/kg, observed over a 24 hour period
Procedure: Six rats were utilized to test the LHRH antagonist peptide of Example 1 of the present invention for anaphylactoid properties. Each of the six rats was injected with 5 mg/kg of the test peptide.

[3] = type: physicochemical
Excerpt: An aqueous solution of the peptide of Example 1 was mixed with an aqueous solution of sodium pamoate.

| Substance | plasma testosterone, 0 hr [1] | plasma testosterone, 24 hr ([1]; 24 hr) | plasma testosterone, 48 hr ([1]; 48 hr) | mortality or other signs of anaphylactoid reactions [2] | effectiveness relative to Antide at 24 hour suppression of plasma testosterone ([1]; 24 hr) | effectiveness relative to Antide at 48 hours, suppression of plasma testosterone ([1]; 48 hr) | solubility in water [3] |
| --- | --- | --- | --- | --- | --- | --- | --- |
| Antide [reference compound] | 3.35 ± 2.51 | 0.78 ± 0.37 | 1.96 ± 0.95 |  |  |  |  |
| Example 1: LHRH antagonist peptide SEQ ID NO.: 1: N-acetyl-D-3-(2-naphthyl)-Ala1, D-3-(4-chlorophenyl)-alanine2, D-3(3-pyridyl)-Ala3, D-6-carbamoyl lysine6, Nε-isopropyl-Lys8, D-Ala-NH2 at 10 (Ac-[d2Nal][dPhe(4-Cl)][d3Pal]SY[dK](Carbamoyl)LK(iPr)P[dA]-NH2) | 5.46 ± 3.32 | 0.067 ± 0.030 | 0.84 ± 0.28 | No mortality or other signs of anaphylactoid reactions were observed | more than about ten times as effective as Antide | more than twice as effective as Antide | freely soluble in water |
| Example 2: LHRH antagonist peptide SEQ ID NO.: 2: as SEQ ID NO.: 1 at positions 1, 2, 3, 6, 8; position 9 is Pro-NHCH2 CH3 (Ac-[d2Nal][dPhe(4-Cl)][d3Pal]SY[dK](Carbamoyl)LK(iPr)P-NHEt; SMILES CCNC(=O)[C@@H]1CCCN1C(=O)[C@H](CCCCNC(C)C)NC(=O)[C@H](CC(C)C)NC(=O)[C@@H](CCCCNC(N)=O)NC(=O)[C@H](Cc1ccc(O)cc1)NC(=O)[C@H](CO)NC(=O)[C@@H](Cc1cccnc1)NC(=O)[C@@H](Cc1ccc(Cl)cc1)NC(=O)[C@@H](Cc1ccc2ccccc2c1)NC(C)=O) |  |  |  |  |  |  | water soluble |

Source: patent publication US5516887A, “Luteinizing hormone releasing hormone antagonist peptides” (Deghenghi; Romano, priority 1994, dated 1996)
